{
  "source": "patent US20110212108A1",
  "about": "“NEUREGULIN/ERBB SIGNALING AND INTEGRIN” (THE REGENTS OF THE UNIVERSITY OF CALIFORNIA, priority 2008, published 2011)",
  "molecules": {"B1": {"name": "WT NRG1α (175-241): wild type human neuregulin 1 fragment, residues 175-241 of SEQ ID NO:4 (SEQ ID NO:5), entire EGF-like motif and α domain (protein)", "chain": "GTSHLVKCAEKEKTFCVNGGECFMVKDLSNPSRYLCKCQPGFTGARCTENVPMKVQNQEKAEELYQK", "modifications": "integrin-binding site within human neuregulin, residues 175-241of human neuregulin 1alpha, long version"}, "B2": {"name": "3KE (175-241): NRG1α (175-241) with Lys181/Lys185/Lys187 mutated to Glu, SEQ ID NO:6 (3KE, long version) (protein)", "chain": "B1 chain with K7E, K11E, K13E", "modifications": "integrin-binding site within human neuregulin, residues 175-241of human neuregulin 1alpha, long version, 3KE mutant"}},
  "key": {"Human M21 melanoma cells": {"system": "Human M21 melanoma cells", "experiment": "M21 cell proliferation, MTS assay", "format": "cell-based", "conditions": "for Induction of proliferation of M21 melanoma cells: serum-starved overnight, cultured 48 h, MTS", "method": "FIG. 8. […] The mutant NRG1 (175-222) suppressed proliferation induced by wt NRG1 (175-222) (dominant-negative effect). Human M21 melanoma cells were serum-starved overnight and cultured 48 h with wt or mutant GST-NRG1 (175-222). Cell proliferation was measured by using MTS assays. Data are shown as means+/−SE (n=3). […] For 3KE+WT, 10 ng/ml wt NRG1 (175-222) and mutant NRG1 (175-222) were added at the indicated concentrations. […] P<0.0001 between wt and 3KE, p=0.0001 between wt and 3KE+wt by 2-way ANOVA. There is no statistical significance between 3KE and 3KE+wt (p=0.58).\n(§1) Cell proliferation: cells were starved by culturing DMEM with low-level FCS (e.g., 0.4%) overnight and then treated with the wt or mutant NRG1 (175-222) (up to 100 ng/ml). The cells were harvested in 15 min to 6 h after stimulation and cell lysates analyzed by western blotting with antibodies specific to signaling molecules. Alternatively, cells were cultured for 24-48 h after stimulation for testing proliferation or cell viability by MTS assays. Statistical analysis and calculation of kinetic constants were performed using Prism software (Graphpad)."}, "[1]": {"system": "Human MCF-7 breast cancer cells", "experiment": "MCF-7 cell proliferation, MTS assay", "format": "cell-based", "conditions": "serum-starved overnight, cultured 48 h, P=0.0018", "method": "FIG. 12. Effect of wt and 3KE NRG1 (175-222) on the proliferation of MCF-7 cells. Human MCF-7 breast cancer cells were serum-starved overnight and cultured 48 h with wt or mutant GST-NRG1 (175-222). Cell proliferation was measured by using MTS assays. […] P=0.0018 by 2-way ANOVA.\nas §1"}, "[2]": {"system": "CHO cells that express recombinant human ErbB4 (ErbB4-CHO)", "experiment": "ERK1/2 activation in ErbB4-CHO cells, Western blotting", "format": "cell-based, Chinese hamster", "conditions": "serum-starved", "method": "FIG. 14. […] ErbB4 was stably expressed in CHO cells (designated ErbB4-CHO cells). ErbB4 was detected in a cell lysate of ErbB4-CHO cells by western blotting (top). Serum-starved CHO or ErbB4-CHO cells were stimulated with wt NRG1 (175-222) or the 3KE (175-222) mutant and ERK1/2 activation was measured by Western blotting.\nCHO cells express endogenous ErbB2 and ErbB3, but no ErbB4. CHO cells that express ErbB4 were generated by transfecting ErbB4 expression vector (designated ErbB4-CHO). […] It is therefore believed that the direct binding of integrin […] the Ras-MAP kinase pathway in ErbB4-CHO cells.\nTransfection: ErbB4 stably transfected cells were generated by transfecting ErbB4 expression plasmid pCDNA3.1 (with a neo gene) to cells and selected for G418 resistance. Western blotting analysis were performed as described above, and mutagenesis was carried out by the Quick-Change method."}, "[3]": {"target": "T1, CHO cells that express human β1 (β1-CHO) (Homo sapiens, UniProt P05556)", "T1 construct": "expressed in transfected cells; host or cells: CHO", "T1 sequence (P05556 21-798)": "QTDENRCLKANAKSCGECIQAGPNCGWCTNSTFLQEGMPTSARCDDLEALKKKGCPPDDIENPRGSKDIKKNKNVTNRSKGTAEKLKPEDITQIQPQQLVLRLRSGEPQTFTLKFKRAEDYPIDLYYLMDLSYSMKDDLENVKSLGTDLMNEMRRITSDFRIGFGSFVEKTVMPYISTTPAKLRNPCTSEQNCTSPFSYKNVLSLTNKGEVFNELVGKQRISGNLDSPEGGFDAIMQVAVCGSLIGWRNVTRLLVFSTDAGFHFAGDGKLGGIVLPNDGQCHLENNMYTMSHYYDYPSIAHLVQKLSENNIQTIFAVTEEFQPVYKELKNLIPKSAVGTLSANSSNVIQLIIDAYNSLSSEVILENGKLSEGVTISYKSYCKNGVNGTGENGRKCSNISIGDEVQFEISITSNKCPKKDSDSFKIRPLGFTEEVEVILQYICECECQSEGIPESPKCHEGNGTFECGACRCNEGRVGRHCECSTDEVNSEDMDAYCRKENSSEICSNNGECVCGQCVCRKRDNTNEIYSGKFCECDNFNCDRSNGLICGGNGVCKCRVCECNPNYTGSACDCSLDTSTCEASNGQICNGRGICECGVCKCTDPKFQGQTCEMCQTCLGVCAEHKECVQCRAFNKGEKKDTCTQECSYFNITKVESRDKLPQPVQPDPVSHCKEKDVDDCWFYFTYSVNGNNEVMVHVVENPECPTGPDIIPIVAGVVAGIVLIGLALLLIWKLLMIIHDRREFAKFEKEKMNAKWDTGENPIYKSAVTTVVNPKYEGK", "experiment": "Cell adhesion assay, β1-CHO cells", "format": "cell-based", "method": "FIG. 3. Adhesion of CHO cells that express human β1 (β1-CHO) or β1-3-1 (β1-3-1-CHO) to wt NRG1 (175-222). The β1-3-1 mutation changes the specificity of β1 integrins to that of β3 integrins. Cell adhesion was performed as described herein. β1-3-1-CHO cells adhered to wt NRG1 (175-222) and this binding was blocked by anti-human β1 antibody AIIB2, but not by purified mouse IgG (mIgG). BSA: BSA as a control was coated instead of NRG1 (175-222).\nCHO or K562 cells expressing different recombinant integrins were previously known and available (Zhang et al. 1998; Tarui et al. 2006). Labeling of proteins with FITC or […] was performed according to manufacturers' instructions. Flow cytometry was performed as described above. Also, adhesion assays as described above were used to confirm the findings using flow cytometry.\nCell adhesion and soluble integrin binding assays were performed as described previously (Mori, et al., 2008). NRG1α (175-241) was immobilized to wells of 96-well microtiter plate overnight at 4° C. in 0.1 M carbonate buffer, pH 2 9.4. Remaining protein binding sites were blocked by incubating with 200 μl of 0.1% BSA in PBS for 60 min at room temperature. […] After rinsing the wells with the same buffer, bound integrins were determined by horseradish peroxidase (HRP)-conjugated anti-His tag mouse IgG and substrate 3,3′,5,5′-tetramethylbenzidine of HRP."}, "MCF-7 cells": {"system": "MCF-7 cells", "experiment": "Western blot analysis of NRG1 signaling in MCF-7 cells", "format": "cell-based, human", "conditions": "2.5 nM", "method": "FIG. 22. Effect of the 3KE mutation on NRG1 signaling. The 3KE mutant of NRG1α (175-241) is defective in inducing ErbB3 phosphorylation, AKT activation and ERK1/2 activation. MCF-7 cells were serum-starved overnight and stimulated with 2.5 nM WT and the 3KE mutant of NRG1α (175-241) at indicated time points. Cell lysates were analyzed by western blotting. […] Data are shown with signals at time 0 as 1.\nMCF-7 cells grown to confluence were serum-starved in serum-free medium overnight, and then treated with WT or 3KE mutant NRG1α (175-241) (2.5 nM) for 5 min to 6 h at 37° C. Cells were washed with ice-cold PBS once, and lysed with the lysis buffer (20 mM HEPES (pH 7.4), 100 mM NaCl, 10% Glycerol, 1% NP-40, 1 mM MgCl2, 5 mM EDTA, 0.5% Triton X-100, 1 mM phenylmethylsulfonyl fluoride, 20 mM NaF, 1 mM Na3VO4, protease inhibitor cocktail (Sigma-Aldrich)). Protein concentrations in the cell lysates were determined using BCA protein assay (Pierce). Equal amounts of cell proteins were analyzed by SDS-PAGE and transferred onto 0.45 μm pore-size polyvinylidene fluoride membrane (Milipore, Birellica, Mass.). The membrane was incubated with primary antibodies, then HRP-conjugated secondary antibody and enhanced chemiluminescence detection reagents (Pierce)."}},
  "note": "Positions count from the first letter of the chain named. Entries after “also recorded” stand apart in the source; their conditions may differ.",
  "data": [
    {"molecule": "3KE (175-222): NRG1 (175-222) with Lys181/Lys185/Lys187 mutated to Glu; GTSHLVECAEEEETFCVNGGECFMVKDLSNPSRYLCKCQPGFTGARCT (SEQ ID NO:11) (integrin-binding site within human neuregulin, 3KE mutant, short version)", "values": [
      {"measurement": "Suppression of proliferation induced by wt NRG1 (175-222) in M21 cells", "setting": "Human M21 melanoma cells; added together with 10 ng/ml wt NRG1 (175-222)", "value": "suppressed the proliferation induced by wt NRG1 (175-222)"},
      {"measurement": "Induction of proliferation of M21 melanoma cells", "setting": "Human M21 melanoma cells", "value": "did not induce proliferation"},
      {"measurement": "Induction of proliferation of MCF-7 cells", "setting": "[1]", "value": "did not"},
      {"measurement": "ERK1/2 activation in ErbB4-CHO cells", "setting": "[2]", "value": "activated ERKI/2; also recorded: enhanced ERK1/2 activation"}
    ]},
    {"molecule": "wt NRG1 (175-222): wild type human neuregulin 1 fragment, EGF-like domain, residues 175-222 of SEQ ID NO:4 (SEQ ID NO:3) (GTSHLVKCAEKEKTFCVNGGECFMVKDLSNPSRYLCKCQPGFTGARCT; integrin-binding site within human neuregulin 1 EGF-like region and portion of alpha domain, residues 175-222 of human neuregulin 1 alpha) [reference compound]", "values": [
      {"measurement": "Adhesion of β1-CHO cells to the immobilized protein", "setting": "[3]", "value": "did not"},
      {"measurement": "Induction of proliferation of M21 melanoma cells", "setting": "Human M21 melanoma cells", "value": "did"},
      {"measurement": "Induction of proliferation of MCF-7 cells", "setting": "[1]", "value": "induced cell proliferation"},
      {"measurement": "ERK1/2 activation in ErbB4-CHO cells", "setting": "[2]", "value": "suppressed ERK1/2"},
      {"measurement": "ERK1/2 activation in ErbB4-CHO cells", "setting": "[2]; listed as wt NRG (175-222)", "value": "suppressed"}
    ]},
    {"molecule": "B1", "values": [
      {"measurement": "Adhesion of β1-CHO cells to the immobilized protein", "setting": "[3]", "value": "did not"},
      {"measurement": "AKT activation (phosphorylation) in MCF-7 cells", "setting": "MCF-7 cells", "value": "markedly induced phosphorylation"},
      {"measurement": "ERK1/2 activation (phosphorylation) in MCF-7 cells", "setting": "MCF-7 cells", "value": "markedly induced phosphorylation"},
      {"measurement": "ErbB3 phosphorylation in MCF-7 cells", "setting": "MCF-7 cells", "value": "markedly induced phosphorylation"}
    ]},
    {"molecule": "B2", "values": [
      {"measurement": "AKT activation (phosphorylation) in MCF-7 cells", "setting": "MCF-7 cells", "value": "little or no AKT activation"},
      {"measurement": "ERK1/2 activation (phosphorylation) in MCF-7 cells", "setting": "MCF-7 cells", "value": "much lower levels than WT NRG1α (175-241); also recorded: only weakly induced phosphorylation"},
      {"measurement": "ErbB3 phosphorylation in MCF-7 cells", "setting": "MCF-7 cells", "value": "much lower levels than WT NRG1α (175-241); also recorded: only weakly induced phosphorylation"}
    ]}
  ]
}
